From patent publication US20230002357A1, “7-PYRIMIDINE-2-YL-OXY-INDAZOLE DERIVATIVES AND THEIR USE AS HERBICIDES” (SYNGENTA CROP PROTECTION AG, priority 2019, published 2023)

Key:
Type in all cases: in vivo
Conditions in all cases: 250 g/ha, evaluated after 13 days
[1] = system: Echinochloa crus-galli (ECHCG); test: Pre-emergence Test, glasshouse, ECHCG
Outline: (§1)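 Pots were sprayed 1 day after sowing (pre-emergence) or after 8 days' growth (post-emergence) at 250 g/ha, formulated in acetone/water 50:50 with 0.5% Tween 20. Glasshouse conditions were 24/16 °C, 14 h light, 65% humidity. Damage was scored after 13 days on a 1–5 scale (5 = 81–100%).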

[2] = system: Amaranthus retoflexus (AMARE); test: Pre-emergence Test, glasshouse, AMARE
Outline: as §1

Setaria faberi (SETFA) [3] = test: Post-emergence Test, glasshouse, SETFA
Outline: as §1

[4] = system: Amaranthus retoflexus (AMARE); test: Post-emergence Test, glasshouse, AMARE
Outline: as §1

Setaria faberi (SETFA) [5] = test: Pre-emergence Test, glasshouse, SETFA
Outline: as §1

IPOHE [6] = test: Pre-emergence Test, glasshouse, IPOHE
Outline: as §1

IPOHE [7] = test: Post-emergence Test, glasshouse, IPOHE
Outline: as §1

[8] = system: Echinochloa crus-galli (ECHCG); test: Post-emergence Test, glasshouse, ECHCG
Outline: as §1

ABUTH [9] = test: Post-emergence Test, glasshouse, ABUTH
Outline: as §1

ABUTH [10] = test: Pre-emergence Test, glasshouse, ABUTH
Outline: as §1

Row | Compound | percentage damage caused to the plant, five-point scale, ECHCG [1] | percentage damage caused to the plant, five-point scale, AMARE [2] | percentage damage caused to the plant, five-point scale, SETFA (Setaria faberi (SETFA) [3]) | percentage damage caused to the plant, five-point scale, AMARE [4] | percentage damage caused to the plant, five-point scale, SETFA (Setaria faberi (SETFA) [5]) | percentage damage caused to the plant, five-point scale, IPOHE (IPOHE [6]) | percentage damage caused to the plant, five-point scale, IPOHE (IPOHE [7]) | percentage damage caused to the plant, five-point scale, ECHCG [8] | percentage damage caused to the plant, five-point scale, ABUTH (ABUTH [9]) | percentage damage caused to the plant, five-point scale, ABUTH (ABUTH [10])
1 | Cc1cnc(Oc2cccc3c(C(F)(F)F)nn(CCCC(F)(F)F)c23)nc1 [Compound 1.070] | 4 (4=61-80%) | 5 (5=81-100%) | 3 (3=41-60%) | 3 (3=41-60%) | 4 (4=61-80%) | 1 (1=0-20%) | 3 (3=41-60%) | 4 (4=61-80%) | 5 (5=81-100%) | 3 (3=41-60%)
2 | Cc1ccc2c(Cl)nn(CCCC(F)(F)F)c2c1Oc1ncc(Cl)cn1 [Compound 1.043, 3-chloro-7-(5-chloropyrimidin-2-yl)oxy-6-methyl-1-(4,4,4-trifluorobutyl)indazole] | 3 (3=41-60%) | 5 (5=81-100%) | 3 (3=41-60%) | 4 (4=61-80%) | 4 (4=61-80%) | 1 (1=0-20%) | 4 (4=61-80%) | 3 (3=41-60%) | 3 (3=41-60%) | 1 (1=0-20%)
3 | CCCCCCn1nc(Cl)c2cccc(Oc3ncc(Cl)cn3)c21 [Compound 1.058] | 3 (3=41-60%) | 2 (2=21-40%) | 2 (2=21-40%) | 4 (4=61-80%) | 3 (3=41-60%) | 1 (1=0-20%) | 2 (2=21-40%) | 3 (3=41-60%) | 3 (3=41-60%) | 2 (2=21-40%)
4 | FC(F)Cn1nc(Cl)c2cccc(Oc3ncc(Cl)cn3)c21 [Compound 1.063] | 2 (2=21-40%) | 3 (3=41-60%) | 2 (2=21-40%) | 4 (4=61-80%) | 2 (2=21-40%) | 1 (1=0-20%) | 2 (2=21-40%) | 2 (2=21-40%) | 3 (3=41-60%) | 2 (2=21-40%)
5 | FCCn1nc(Cl)c2cccc(Oc3ncc(Cl)cn3)c21 [Compound 1.062] | 2 (2=21-40%) | 4 (4=61-80%) | 1 (1=0-20%) | 3 (3=41-60%) | 4 (4=61-80%) | 1 (1=0-20%) | 1 (1=0-20%) | 1 (1=0-20%) | 2 (2=21-40%) | 1 (1=0-20%)
6 | C#CCn1nc(Cl)c2cccc(Oc3ncc(Cl)cn3)c21 [Compound 1.059] | 2 (2=21-40%) | 2 (2=21-40%) | 1 (1=0-20%) | 4 (4=61-80%) | 2 (2=21-40%) | 1 (1=0-20%) | 1 (1=0-20%) | 1 (1=0-20%) | 2 (2=21-40%) | 2 (2=21-40%)
7 | FC(F)(F)CCCCn1nc(Cl)c2cccc(Oc3ncc(Cl)cn3)c21 [Compound 1.068] | 4 (4=61-80%) | 5 (5=81-100%) | 3 (3=41-60%) | 5 (5=81-100%) | 5 (5=81-100%) | 2 (2=21-40%) | 2 (2=21-40%) | 3 (3=41-60%) | 4 (4=61-80%) | 2 (2=21-40%)
